Measured values: PMC6811539, “Minute-scale persistence of a GPCR conformation state triggered by non-cognate G protein interactions primes signaling” (Nature Communications, 2019)

Tested on: β2-AR-Sp SPASM sensor
Assay: ΔFRET assay of β2-AR activation on native membranes with β2-AR-Sp SPASM sensor
Type: biochemical, human
Set-up: mean ΔFRET: unit of the concentration uncertain
Details: for mean ΔFRET: SuppFig 3c
Description: Membranes were prepared following a published protocol[56] from HEK293T cells transiently transfected with the appropriate DNA (β2-AR-mCherry, β2-mCerulean, V1AR-mCherry, β2-AR-ICL3 or β2-AR-Sp). Cells were collected in culture medium and washed twice with PBS by centrifugation (300 × g, 3 min, ambient temperature). Cell pellets were incubated with an ice-cold hypotonic buffer (solution A: 10 mM HEPES, 1 mM EGTA, pH 7.2) for 30 min on ice. Cells in solution A were lysed gently (30 strokes) in a chilled Dounce homogenizer in the presence of 1.5 μg/mL aprotinin, 1.5 μg/mL leupeptin, 5 μg/mL phenylmethylsulfonyl fluoride (PMSF) and 1 mM dithiothreitol (DTT). Nuclei and intact cells were eliminated by centrifugation at 1000 × g, 5 min, 4 °C. All subsequent centrifugation steps were performed in a TLA100.4 rotor at 135,000 × g, 30 min, 4 °C. Native membranes were washed with 20 mM HEPES, 100 mM NaCl, 5 mM MgCl2, 100 μM GDP in the presence of 1.5 μg/mL aprotinin, 1.5 μg/mL leupeptin, 5 μg/mL PMSF, and 1 mM DTT, and were stored in the same buffer with 12% sucrose. For experiments to monitor Gα peptide–GPCR interactions using ΔFRET response, the native β2-AR-Sp sensor-containing membranes were washed in buffer containing 20 mM HEPES, 100 mM NaCl, 45 mM KCl, 5 mM MgCl2, and 100 μM GDP, and were stored in sucrose (12% w/v)-supplemented wash buffer.
Native membranes were collected from HEK293T cells expressing either the β2-AR-Sp SPASM sensor or the β2-AR-ICL3 conformational sensor. Frozen membranes were thawed and handled on ice. The membranes were resuspended by sonication to a concentration of 100 nM sensor (1 × 10^6 mCer cps) in 20 mM HEPES, 100 mM NaCl, 45 mM KCl, 5 mM MgCl2, pH 7.4 (ΔFRET buffer minus Ca^2+) in the presence of 1.5 μg/mL aprotinin, 1.5 μg/mL leupeptin, and 5 μg/mL PMSF. Indicated peptides were added to 30 μM (50 μM for PC-Qp) in a sample volume of 1 mL. The sample was aliquoted as 90 μl into ten replicate tubes—five labeled ISO and five buffer. Agonist solution (ISO) containing 1 mM Isoproterenol and 1 mM ascorbic acid was prepared in ΔFRET buffer minus Ca^2+. […]

DTENIRFVFAAVKDTILQLNLKE(Anp)NLV [PC-Qp, photocleavable Qp, Y356 replaced by Anp]
mean ΔFRET (PCQp (30 µM)): 0.018
mean ΔFRET (PCQp (50 µM)): 0.024
duration of sustained FRET response after peptide removal (β2-AR-Sp sensor, ISO 100 μM, depletion (bioQp) or photocleavage (PC-Qp)): 120 s
